For assay [1], the system named is anaerobic bacteria. The experiment in a line: Culture on Columbia medium with 5% sheep blood in ambient air. The format is cell-based. The settings on record: 1 mg/ml; ambient air or ambient air enriched with 5% of CO2. As for the experimental part: These geloses inoculated with anaerobic bacteria were incubated either in ambient air or in ambient air enriched with 5% of CO2. […] These tests were conducted with a Columbia medium with 5% sheep blood having the following composition for 1 liter: […]

Assay [2] has as its system Helicobacter cinaedi strain DSMZ 5359. The experiment in a line: Aerobic culture in Schaedler medium with uric acid. As to conditions: without starch and glucose.
Assay [3] deals with Clostridium perfringens. The format is cell-based. The settings on record: Aerobic with UA 400 mg/L.
The subject of assay [4] is Clostridium butirycum. The experiment in a line: Liquid hemoculture BD BACTEC Plus Aerobic/F, growth detection by CO2. The format is cell-based. As to conditions: Aerobic with UA 400 mg/L. As for the experimental part:
Hemocultures of strict anaerobic bacteria were made, inoculated to 10^5 cfu/mL on a culture medium: BD BACTEC™ Plus Aerobic/F. comprising 25 ml of enriched Trypticase soya broth, with resines (Reference: 442192) at 37° C. in an aerobic atmosphere with uric acid a 400 mg/L and without uric acid and in an anaerobic atmosphere without uric acid. The detection of the growth was ensured by detection of the production of CO2 with the BD BACTEC™ 9000 Series Instrumented Blood Culture Systems device.

The test system of assay [5] is Clostridium tertium. Described as above. The settings on record: Aerobic with UA 400 mg/L. The format is cell-based.
Assay [6] concerns Bacteroides thetaiotaomicron. The assay can be described thus: Culture in Schaedler 0.2% agar tubes, height of growth. The format is cell-based.
Assay [7] deals with Bacteroides thetaiotaomicron. The format is cell-based.
Where [8] appears, read: single replicates, listed as UA.

“And” between values parts separate entries of the source, which are not always exact repeats. Equal values may be shown once. “Also recorded” adds a separate entry of the source. Read-outs that look alike come from different tables or passages of the source.

As to `O=C1O[C@H]([C@@H](O)CO)C(O)=C1O` [ascorbic acid, reference compound], the “growth on Columbia medium with 5% sheep blood” value in assay [1] is reported as “Best growth”.

`O=c1[nH]c(=O)c2[nH]c(=O)[nH]c2[nH]1` [uric acid, 7,9-dihydro-1H-purine-2,6,8(3H)-trione]: the “time until bacterium established in culture” value in assay [2] was at most 24 h. In addition, in assay [1], the “growth on Columbia medium with 5% sheep blood” value was “Best growth”. For the same compound, the “Averages (growth time)” value in assay [3] stood at 6; in assay [4], 6.667; in assay [5], 4.333. Moreover, the Growth time was 7 h and 5 h and 6 h in assay [3] (setting [8]); 8 h and 6 h (2×) in assay [4] (setting [8]); 4 h (2×) and 5 h in assay [5] (setting [8]). Besides, the “extent of culture in deoxygenated tube” value in assay [6] (200 μg/ml) is on record as “practically occurs up to the surface”; in assay [6] (500 μg/ml), “completely up to the surface; also recorded: growth up to the surface”. Also, in assay [6] (500 μg/ml, Schaedler 0.2% agar tubes), the “growth compared with ascorbic acid” value was “identical”. For the same compound, the “growth with uric acid alone compared with mixture of uric acid, ascorbic acid and glutathion” value in assay [7] (0.3 g/L of uric acid alone) is “greater”; in assay [7] (uric acid alone at least 0.2 g/L), “equivalent”. In assay [7] (aerobic conditions, 24 hour incubation, 37° C., uric acid alone 0.1, 0.2 or 0.3 g/L, or 0.1 g/L each of ascorbic acid, uric acid, glutathion), the “culture result with production of hydrogen” value was “positive culture”.

The values are drawn from patent US10626421B2, “Use of uric acid for culturing bacteria sensitive to oxygen tension” (FONDATION MEDITERRANEE INFECTION, priority 2014, dated 2020).
